From the supplement of paper PMC10307832

Assays:
Test in all cases: relative viability (nuclei count vs DMSO), 5 days (fraction); higher = more cells survive
Apatinib + Tozasertib = compound: N#CC1(c2ccc(NC(=O)c3cccnc3NCc3ccncc3)cc2)CCCC1 [Apatinib] + Cc1cc(Nc2cc(N3CCN(C)CC3)nc(Sc3ccc(NC(=O)C4CC4)cc3)n2)n[nH]1 [Tozasertib] (partner 0.1 µM)
Procedure, shortened: (§1)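 Lung cancer cell lines were seeded in 1536-well plates and dosed by pin tool the next day, with either a single drug or a fixed anchor-drug dose combined with five library-drug doses (not always all listed) spaced in √10 steps. Five days later, one step fixed the cells and stained their nuclei (final 0.05% Triton X-100, 1% formaldehyde, 1 ug/ml Hoechst), and nuclei were counted on 4× images. Relative viability is the nuclei count in treated wells divided by the count in vehicle wells, and each value is the median of duplicate plates.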

Metformin + Foretinib = compound: CN(C)C(=N)NC(=N)N [Metformin] + COc1cc2c(Oc3ccc(NC(=O)C4(C(=O)Nc5ccc(F)cc5)CC4)cc3F)ccnc2cc1OCCCN1CCOCC1 [Foretinib] (partner 0.25 µM)
Procedure, shortened: as §1

Metformin + Pictilisib = compound: CN(C)C(=N)NC(=N)N [Metformin] + CS(=O)(=O)N1CCN(Cc2cc3nc(-c4cccc5[nH]ncc45)nc(N4CCOCC4)c3s2)CC1 [Pictilisib] (partner 1 µM)
Procedure, shortened: as §1

Apatinib + Olaparib = compound: N#CC1(c2ccc(NC(=O)c3cccnc3NCc3ccncc3)cc2)CCCC1 [Apatinib] + O=C(c1cc(Cc2n[nH]c(=O)c3ccccc23)ccc1F)N1CCN(C(=O)C2CC2)CC1 [Olaparib] (partner 8 µM)
Procedure, shortened: as §1

Cell Line	relative viability (Apatinib + Tozasertib; first compound 0.08 µM)	relative viability (Apatinib + Tozasertib; first compound 0.253 µM)	relative viability (Apatinib + Tozasertib; first compound 0.8 µM)	relative viability (Apatinib + Tozasertib; first compound 2.53 µM)	relative viability (Apatinib + Tozasertib; first compound 8 µM)	relative viability (Metformin + Foretinib; first compound 10 µM)	relative viability (Metformin + Foretinib; first compound 31.62 µM)	relative viability (Metformin + Foretinib; first compound 100 µM)	relative viability (Metformin + Foretinib; first compound 316.23 µM)	relative viability (Metformin + Foretinib; first compound 1000 µM)	relative viability (Metformin + Pictilisib; first compound 10 µM)	relative viability (Metformin + Pictilisib; first compound 31.62 µM)	relative viability (Metformin + Pictilisib; first compound 100 µM)	relative viability (Metformin + Pictilisib; first compound 316.23 µM)	relative viability (Metformin + Pictilisib; first compound 1000 µM)	relative viability (Apatinib + Olaparib; first compound 0.08 µM)	relative viability (Apatinib + Olaparib; first compound 0.253 µM)	relative viability (Apatinib + Olaparib; first compound 0.8 µM)	relative viability (Apatinib + Olaparib; first compound 2.53 µM)	relative viability (Apatinib + Olaparib; first compound 8 µM)
SK-MES-1	0.972	0.928	0.729	0.77	0.484	0.915	0.888	0.874	0.912	1.18	0.424	0.34	0.362	0.378	0.414	0.858	0.665	0.627	0.592	0.411
NCI-H2170	0.86	0.879	0.677	0.652	0.51	0.951	1.02	0.915	0.95	0.965	0.3	0.283	0.301	0.31	0.264	0.617	0.623	0.638	0.49	0.485
NCI-H1648	0.484	0.346	0.563	0.366	0.197											0.934	0.854	0.761	0.501	0.433
NCI-H1915	0.422	0.445	0.43	0.35	0.267		1.04	1.15	1.07	1.18		1.08	0.95	0.919	0.933	0.262	0.257	0.266	0.264	0.239
HCC-366	0.11	0.0735	0.0616	0.0574	0.0476	1.09	0.928	0.881	0.955	0.943	0.141	0.213	0.138	0.115	0.185	0.435	0.372	0.249	0.292	0.245
HOP-62	0.442	0.403	0.329	0.257	0.192	0.882	1.08	1.08	0.985	1	0.739	0.656	0.786	0.531	0.657	0.328	0.396	0.407	0.354	0.282
RERF-LC-KJ	0.538	0.428	0.393	0.326	0.293	0.775	0.796	0.804	0.763	0.935	0.57	0.55	0.53	0.402	0.614	0.919	0.801	0.903	0.782	0.715
NCI-H2347	0.504	0.651	0.604	0.428	0.466	0.844	0.578	0.784	0.885	0.459	0.665	0.834	1.02	0.492	0.659	0.634	0.485	0.583	0.517	0.493
PC-14	0.7	0.65	0.536	0.562	0.493	0.795	1.08	0.879	0.932	1	0.577	0.811	0.654	0.734	0.776	0.278	0.28	0.222	0.213	0.252
IA-LM						1.18	1.27	1.43	1.11	1.28	0.337	0.462	0.41	0.38	0.303	0.765	0.766	0.769	0.607	0.396
NCI-H727	0.676	0.631	0.545	0.559	0.488	0.971	0.769	0.959	0.914	0.927	0.389	0.514	0.6	0.317	0.451	0.812		0.725	0.622	0.718
NCI-H1975	0.864	0.691	0.253	0.157	0.157	1.16	1.1	1.08	1.06	1.21	0.285	0.327	0.306	0.314	0.321	0.795	0.77	0.727	0.723	0.634
NCI-H2085	0.844	0.767	0.726	0.379	0.406	0.854	0.892	0.865	1.04	1.19	0.408	0.492	0.472	0.439	0.545	0.763	0.748	0.766	0.68	0.771
Calu-6						0.809	0.878	0.917	0.795	0.821	0.733	0.886	0.769	0.531	0.413	0.618	0.648	0.541	0.426	0.393
LC-2-ad	0.516	0.522	0.466	0.462	0.446		0.788	0.923	0.692	0.624		0.471	0.334	0.426	0.408	0.747	0.658	0.699	0.743	0.668
SW 900	0.504	0.54	0.442	0.323	0.2	0.919	0.884	0.736	0.846	0.882						0.974	0.823	0.842	0.714	0.606
HCC-827	0.381	0.388	0.43	0.413	0.311		0.899	0.974	0.807	0.889		0.914	1.13	0.996	1.15	0.68	0.628	0.644	0.54	0.561
